Measurements published in patent US6608082B1, “Treatment of erectile dysfunction using isoquinoline compound melanocortin receptor ligands” (Lion Bioscience AG, priority 1998, dated 2003).
Read-outs that look alike come from different tables or passages of the source. One block for each molecule: values may come before it.

Assays:
MCR-1 = molecular target: T1, MCR-1 (Homo sapiens, UniProt Q01726); assay: Melanocortin receptor binding assay, competition with 125I-HP 467, HEK 293 cells expressing hMCR-1; details: for IC50: read-out: MC-1 IC50; for % Disp. MC-1 10 μM: displacement of 125I-HP 467 at 10 μM isoquinoline compound
T1 construct: expressed in transfected cells; host or cells: HEK 293
T1 sequence (Q01726 whole entry): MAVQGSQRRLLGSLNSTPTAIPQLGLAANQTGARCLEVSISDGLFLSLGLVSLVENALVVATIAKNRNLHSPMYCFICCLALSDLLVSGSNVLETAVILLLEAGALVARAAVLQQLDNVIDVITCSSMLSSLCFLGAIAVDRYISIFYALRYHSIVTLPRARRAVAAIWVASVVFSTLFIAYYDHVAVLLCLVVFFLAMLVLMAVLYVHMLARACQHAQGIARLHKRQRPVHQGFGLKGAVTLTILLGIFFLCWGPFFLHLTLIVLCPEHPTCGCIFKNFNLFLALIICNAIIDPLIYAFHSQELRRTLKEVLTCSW
How it was run: (§1)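 Intact-cell competition binding, 2.5 hr at 37 °C, in PBS/10% calf serum/1 mM CaCl2; hMCR-4 cells at 4×10^3 per tube, hMCR-1 cells at 2×10^4 per tube. Filtration on BSA/CaCl2-soaked GF/B, cold 50 mM Tris pH 7.4 washes, scintillation count.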

MCR-4 = molecular target: T2, MCR-4 (Homo sapiens, UniProt P32245); assay: Melanocortin receptor binding assay, competition with 125I-HP 467, HEK 293 cells expressing hMCR-4; details: for IC50: read-out: MC-4 IC50
T2 construct: expressed in transfected cells; host or cells: HEK 293
T2 sequence (P32245 whole entry): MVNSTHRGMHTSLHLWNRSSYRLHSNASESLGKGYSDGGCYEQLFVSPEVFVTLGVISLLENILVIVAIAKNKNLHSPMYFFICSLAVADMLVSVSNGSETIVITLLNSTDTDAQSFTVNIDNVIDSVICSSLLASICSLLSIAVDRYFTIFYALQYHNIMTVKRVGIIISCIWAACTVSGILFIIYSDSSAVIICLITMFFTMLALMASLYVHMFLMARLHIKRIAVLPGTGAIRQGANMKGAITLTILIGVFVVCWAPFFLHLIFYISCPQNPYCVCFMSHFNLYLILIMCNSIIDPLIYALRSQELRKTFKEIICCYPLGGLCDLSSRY
How it was run: as §1

[1] = TRG 2408 and TRG 2409 libraries, inhibition of 125I-HP 467 binding
[2] = inhibition of binding of 125I-HP 467, HEK 293 cells expressing MCR-1
[3] = inhibition of binding of 125I-HP 467, HEK 293 cells expressing MCR-4
[4] = TRG 2406 and TRG 2407 libraries, inhibition of binding of 125I-HP 467
[5] = inhibition of binding of 125I-HP 467, HEK 293 cells expressing MCR-1, TRG 2414 library
[6] = inhibition of binding of 125I-HP 467, HEK 293 cells expressing MCR-4, TRG 2414 library
[7] = TRG 2414 library, inhibition of binding of 125I-HP 467, HEK 293 cells expressing MCR-1
[8] = TRG 2414 library, inhibition of binding of 125I-HP 467, HEK 293 cells expressing MCR-4

IC50 (MCR-1; [2]): 0.1 µM
IC50 (MCR-4; [3]): 0.41 µM
Structure (SMILES): CCNc1ccc(C2C(CNCCc3ccccc3)c3ccccc3CN2CCCC(CN)NCc2ccccc2)cc1 (stereo not shown) [TRG 2411-158]

IC50 (MCR-1; [5]): 1.65 µM
IC50 (MCR-4; [6]): 14.6 µM
Structure (SMILES): COc1ccccc1CCNCC1c2ccccc2CN(CCCCC(CN)NCc2ccccc2)C1c1ccc(Oc2ccccc2)cc1 (stereo not shown) [TRG 2414-131]

IC50 (MCR-1; [2]): 0.62 µM
IC50 (MCR-4; [3]): 1.06 µM
Structure (SMILES): CCCCCc1ccc(C2C(CNCCc3ccccc3)c3ccccc3CN2CCCC(CN)NCc2ccccc2)cc1 (stereo not shown) [TRG 2412-30]

MC-1 IC50 (MCR-1; [5]): no fit
IC50 (MCR-4; [6]): 42.6 µM
Structure (SMILES): CC(C)Cc1ccc(C(C)CNC(CN)CCCCN2Cc3ccccc3C(CNCCc3cccc(Cl)c3)C2c2cc(C(F)(F)F)cc(C(F)(F)F)c2)cc1 (stereo not shown) [TRG 2414-56]

IC50 (MCR-1; [5]): 31.5 µM
MC-4 IC50 (MCR-4; [6]): no fit
Structure (SMILES): NCC(CCCCN1Cc2ccccc2C(CNCc2ccccc2C(F)(F)F)C1c1cccc(Oc2ccccc2)c1)NCc1ccccc1 (stereo not shown) [TRG 2414-83]

IC50 (MCR-1; competition with 125I-HP 467, HEK 293 cells expressing MCR-1): 1.24 µM
IC50 (MCR-4; competition with 125I-HP 467, HEK 293 cells expressing MCR-4): 1.98 µM
Structure (SMILES): NCC(CCCN1Cc2ccccc2C(CNCCc2ccccc2)C1c1ccc(-c2ccccc2)cc1)NCCc1ccccc1 (stereo not shown) [TRG 2411-116]

IC50 (MCR-1; [5]): 8.64 µM
IC50 (MCR-4; [6]): 17.5 µM
Structure (SMILES): CC(C)Cc1ccc(C(C)CNC(CN)CCCCN2Cc3ccccc3C(CNC3CCCCC3)C2c2ccc(Cl)cc2Cl)cc1 (stereo not shown) [TRG 2414-40]

IC50 (MCR-1; [5]): 2.05 µM
IC50 (MCR-4; [6]): 3.47 µM
Structure (SMILES): COc1ccc(CCNCC2c3ccccc3CN(CCCCC(N)CN)C2c2ccc(Oc3ccccc3)cc2)cc1 (stereo not shown) [TRG 2414-145]

IC50 (MCR-1; [4]): 1.23 µM
IC50 (MCR-4; [4]): 1.74 µM
Structure (SMILES): CNC(CN)CCCCN1Cc2ccccc2C(CNCc2ccccc2O)C1c1cccc(Oc2ccc(OC)cc2)c1 (stereo not shown) [TRG 2406-7]

IC50 (MCR-1; [5]): 6.65 µM
IC50 (MCR-4; [6]): 11.2 µM
Structure (SMILES): CCOc1ccccc1CNCC1c2ccccc2CN(CCCCC(CN)NCc2ccccc2)C1c1cccc(Oc2ccccc2)c1 (stereo not shown) [TRG 2414-87]

IC50 (MCR-1; [5]): 4.97 µM
IC50 (MCR-4; [6]): 8.22 µM
Structure (SMILES): COc1cccc(CNCC2c3ccccc3CN(CCCCC(CN)NCCc3ccccc3)C2c2ccc(Cl)cc2Cl)c1 (stereo not shown) [TRG 2414-18]

MC-1 IC50 (MCR-1; [5]): no fit
IC50 (MCR-4; [6]): 52.6 µM
Structure (SMILES): COc1cccc(CNCC2c3ccccc3CN(CCCCC(CN)NCC(C)c3ccc(CC(C)C)cc3)C2c2cc(C(F)(F)F)cc(C(F)(F)F)c2)c1 (stereo not shown) [TRG 2414-60]

MC-1 IC50 (MCR-1; [5]): no fit
MC-4 IC50 (MCR-4; [6]): no fit
Structure (SMILES): CC(C)Cc1ccc(C(C)CN[C@H](CN)CCCCN2Cc3ccccc3C(CNCc3ccccc3C(F)(F)F)C2c2cccc(Oc3ccccc3)c2)cc1 (stereo partly shown) [TRG 2414-84]

IC50 (MCR-1; [5]): 2.93 µM
IC50 (MCR-4; [6]): 4.88 µM
Structure (SMILES): COc1ccccc1CCNCC1c2ccccc2CN(CCCCC(CN)NCCc2ccccc2)C1c1ccc(Cl)cc1Cl (stereo not shown) [TRG 2414-10]

MC-1 IC50 (MCR-1; [5]): no fit
MC-4 IC50 (MCR-4; [6]): no fit
Structure (SMILES): COc1cccc(CNCC2c3ccccc3CN(CCCCC(CN)NCC(C)c3ccc(CC(C)C)cc3)C2c2cccc(Oc3ccccc3)c2)c1 (stereo not shown) [TRG 2414-100]

MC-1 IC50 (MCR-1; [5]): no fit
IC50 (MCR-4; [6]): 33.4 µM
Structure (SMILES): CC(C)Cc1ccc(C(C)CNC(CN)CCCCN2Cc3ccccc3C(CNCCc3cccc(Cl)c3)C2c2ccc(Cl)cc2Cl)cc1 (stereo not shown) [TRG 2414-16]

IC50 (MCR-1; [5]): 8.66 µM
IC50 (MCR-4; [6]): 5.26 µM
Structure (SMILES): NCC(CCCCN1Cc2ccccc2C(CNCCc2cccc(Cl)c2)C1c1cccc(Oc2ccccc2)c1)NCc1ccccc1 (stereo not shown) [TRG 2414-95]

Continued, molecule first:

Structure (SMILES): CCNc1ccc(C2C(CNC3CCCCC3)c3ccccc3CN2CCCCC(CN)NCCNC)cc1 (stereo not shown) [TRG 2408-34]
IC50 (MCR-1; [1]): 2.14 µM
IC50 (MCR-4; [1]): 33.6 µM

Structure (SMILES): CCNc1ccc(C2C(CN)c3ccccc3CN2CCCC(CN)NCCCCNc2ccccc2)cc1 (stereo not shown) [TRG 2419-9]
IC50 (MCR-1; [2]): 0.239 µM
IC50 (MCR-4; [3]): 10 µM

Structure (SMILES): CNC(CN)CCCCN1Cc2ccccc2C(CNCc2ccccc2O)C1c1cccn1C (stereo not shown) [TRG 2406-1]
IC50 (MCR-1; [4]): 3.79 µM
IC50 (MCR-4; [4]): 5.85 µM

Structure (SMILES): NCC(CCCCN1Cc2ccccc2C(CNCCc2ccccc2)C1c1cc(C(F)(F)F)cc(C(F)(F)F)c1)NCc1ccccc1 (stereo not shown) [TRG 2421-1]
IC50 (MCR-1; [2]): 4.18 µM
IC50 (MCR-4; [3]): 1.78 µM

Structure (SMILES): NCC(N)CCCCN1Cc2ccccc2C(CNC2CCCCCC2)C1c1ccc(Oc2ccccc2)cc1 (stereo not shown) [TRG 2414-153]
IC50 (MCR-1; [5]): 0.772 µM
IC50 (MCR-4; [6]): 4.09 µM

Structure (SMILES): CCNc1ccc(C2C(CNCCc3ccccc3)c3ccccc3CN2CCC[C@@H](CN)NCCCCOc2ccccc2)cc1 (stereo partly shown) [2424#5]
IC50 (MCR-1; [2]): 0.05 µM
IC50 (MCR-4; [3]): 1.51 µM

Structure (SMILES): COc1ccc(CCNCC2c3ccccc3CN(CCCCC(CN)NCc3ccc(OC)cc3)C2c2cccc(C(F)(F)F)c2)cc1 (stereo not shown) [TRG 2421-44]
IC50 (MCR-1; [2]): 1.54 µM
IC50 (MCR-4; [3]): 1.42 µM

Structure (SMILES): CCNc1ccc(C2C(CN(C)Cc3ccccc3)c3ccccc3CN2CCCCC(CN)NC)cc1 (stereo not shown) [TRG 2407-51]
IC50 (MCR-1; [4]): 2.16 µM
IC50 (MCR-4; [4]): 13.5 µM

Structure (SMILES): CNCCN[C@@H](CN)CCCCN1Cc2ccccc2C(CNC2CCCCC2)C1c1ccc(-c2ccccc2)cc1 (stereo partly shown) [TRG 2408-54]
IC50 (MCR-1; [1]): 0.61 µM
IC50 (MCR-4; [1]): 26.8 µM

Structure (SMILES): COc1ccc(CNCC2c3ccccc3CN(CCCCC(N)CN)C2c2ccccc2Br)cc1 (stereo not shown) [Cmpd 221]
IC50 (MCR-1; [7]): 6.61 µM
IC50 (MCR-4; [8]): 1.83 µM

Structure (SMILES): CCNc1ccc(C2C(CNC3CCCCC3)c3ccccc3CN2CCCCC(N)CN)cc1 (mixture of isomers) [TRG 2408-31]
IC50 (MCR-1; [1]): 1.27 µM
IC50 (MCR-4; [1]): 46.5 µM

Structure (SMILES): NCC(CCCCN1Cc2ccccc2C(CNCCc2ccc(O)cc2)C1c1cc(C(F)(F)F)cc(C(F)(F)F)c1)NCc1ccc(-c2ccccc2)cc1 (stereo not shown) [TRG 2421-10]
IC50 (MCR-1; [2]): 4.77 µM
IC50 (MCR-4; [3]): 9.11 µM

Structure (SMILES): CNC(CN)CCCCN1Cc2ccccc2C(CNCc2ccc(C(F)(F)F)cc2)C1c1ccc(Cl)cc1Cl (stereo not shown) [TRG 2407-20]
IC50 (MCR-1; [4]): 3.78 µM
IC50 (MCR-4; [4]): 3.49 µM

Structure (SMILES): CCCOc1ccc(C2C(CNCc3ccc(OC)cc3)c3ccccc3CN2CCCCC(N)CN)cc1 (stereo not shown) [Cmpd 283]
MC-1 IC50 (MCR-1; [7]): no fit
MC-4 IC50 (MCR-4; [8]): no fit

Structure (SMILES): NCC(N)CCCN1Cc2ccccc2C(CNC2CCCCC2)C1c1ccc(-c2ccccc2)cc1 (stereo not shown) [TRG 2408-81]
IC50 (MCR-1; [1]): 4.41 µM
IC50 (MCR-4; [1]): 18 µM

Structure (SMILES): CCNc1ccc(C2C(CNCCc3ccccc3)c3ccccc3CN2CCCC(CN)NCCc2ccc(Br)cc2)cc1 (stereo not shown) [TRG 2411-156]
IC50 (MCR-1; [2]): 0.12 µM
IC50 (MCR-4; [3]): 0.66 µM

Structure (SMILES): CNC(CN)CCCCN1Cc2ccccc2C(CNCc2ccccc2Cl)C1c1ccc(Cl)cc1Cl (stereo not shown) [TRG 2407-12]
IC50 (MCR-1; [4]): 2.7 µM
IC50 (MCR-4; [4]): 3.23 µM

Structure (SMILES): CCNc1ccc(C2C(CNCCc3ccccc3)c3ccccc3CN2CCCC(CN)NCCCCNCc2ccccc2)cc1 (stereo not shown) [TRG 2419-3]
IC50 (MCR-1; [2]): 0.049 µM
IC50 (MCR-4; [3]): 2.15 µM

Structure (SMILES): CCOc1ccc(C2C(CNCCc3ccccc3)c3ccccc3CN2CCCCC(CN)NC)cc1 (stereo not shown) [TRG 2412-4]
IC50 (MCR-1; [2]): 0.31 µM
IC50 (MCR-4; [3]): 0.32 µM

Structure (SMILES): Cc1ccc(CNC(CN)CCCCN2Cc3ccccc3C(CNCCc3ccc(O)cc3)C2c2cc(C(F)(F)F)cc(C(F)(F)F)c2)cc1 (stereo not shown) [TRG 2421-7]
IC50 (MCR-1; [2]): 3.19 µM
IC50 (MCR-4; [3]): 4.53 µM

Structure (SMILES): C=CCNCC1c2ccccc2CN(CCCCC(CN)NC)C1c1ccc(Cl)cc1Cl (stereo not shown) [TRG 2407-36]
IC50 (MCR-1; [4]): 0.43 µM
IC50 (MCR-4; [4]): 0.46 µM

Structure (SMILES): NCCNC(CN)CCN1Cc2ccccc2C(CNC2CCCCC2)C1c1ccc(-c2ccccc2)cc1 (stereo not shown) [TRG 2408-113]
IC50 (MCR-1; [1]): 3.78 µM
IC50 (MCR-4; [1]): 12.7 µM

Structure (SMILES): COc1ccccc1CCNCC1c2ccccc2CN(CCCCC(N)CN)C1c1ccc(Cl)cc1Cl (stereo not shown) [Cmpd 241]
MC-1 IC50 (MCR-1; [7]): no fit
MC-4 IC50 (MCR-4; [8]): no fit

Structure (SMILES): COc1ccc(CCNCC2c3ccccc3CN(CCCCC(N)CN)C2c2cc(C(F)(F)F)cc(C(F)(F)F)c2)cc1 (stereo not shown) [Cmpd 262]
MC-1 IC50 (MCR-1; [7]): no fit
MC-4 IC50 (MCR-4; [8]): no fit

Structure (SMILES): CNC(CN)CN1Cc2ccccc2C(CNC2CCCCC2)C1c1ccccn1 (stereo not shown) [TRG 2405-111]
IC50 (MCR-1; TRG 2405 section, inhibition of binding of 125I-HP 467, HEK 293 cells expressing MCR-1): 7.48 µM
% Disp. MC-1 10 μM (MCR-1; first of duplicate): 57.2%
% Disp. MC-1 10 μM (MCR-1; second of duplicate): 51%
IC50 (MCR-4; TRG 2405 section, inhibition of binding of 125I-HP 467, HEK 293 cells expressing MCR-4): 17.1 µM

Structure (SMILES): CCNc1ccc(C2C(CNCCc3ccccc3)c3ccccc3CN2CCCC(CN)NCCCCN(CC)CC)cc1 (stereo not shown) [TRG 2419-4]
IC50 (MCR-1; [2]): 0.058 µM
IC50 (MCR-4; [3]): 14.4 µM
